# Assay results from US20260042762A1 (Kymera Therapeutics, Inc., priority 2018, published 2026).
# Where a name gives a salt, the structure may show the parent alone.
# Molecular target: T1, MerTK (Homo sapiens, UniProt Q12866)
# T1 construct: endogenous in cells; host or cells: Jurkat cells
# T1 sequence (Q12866 21-999): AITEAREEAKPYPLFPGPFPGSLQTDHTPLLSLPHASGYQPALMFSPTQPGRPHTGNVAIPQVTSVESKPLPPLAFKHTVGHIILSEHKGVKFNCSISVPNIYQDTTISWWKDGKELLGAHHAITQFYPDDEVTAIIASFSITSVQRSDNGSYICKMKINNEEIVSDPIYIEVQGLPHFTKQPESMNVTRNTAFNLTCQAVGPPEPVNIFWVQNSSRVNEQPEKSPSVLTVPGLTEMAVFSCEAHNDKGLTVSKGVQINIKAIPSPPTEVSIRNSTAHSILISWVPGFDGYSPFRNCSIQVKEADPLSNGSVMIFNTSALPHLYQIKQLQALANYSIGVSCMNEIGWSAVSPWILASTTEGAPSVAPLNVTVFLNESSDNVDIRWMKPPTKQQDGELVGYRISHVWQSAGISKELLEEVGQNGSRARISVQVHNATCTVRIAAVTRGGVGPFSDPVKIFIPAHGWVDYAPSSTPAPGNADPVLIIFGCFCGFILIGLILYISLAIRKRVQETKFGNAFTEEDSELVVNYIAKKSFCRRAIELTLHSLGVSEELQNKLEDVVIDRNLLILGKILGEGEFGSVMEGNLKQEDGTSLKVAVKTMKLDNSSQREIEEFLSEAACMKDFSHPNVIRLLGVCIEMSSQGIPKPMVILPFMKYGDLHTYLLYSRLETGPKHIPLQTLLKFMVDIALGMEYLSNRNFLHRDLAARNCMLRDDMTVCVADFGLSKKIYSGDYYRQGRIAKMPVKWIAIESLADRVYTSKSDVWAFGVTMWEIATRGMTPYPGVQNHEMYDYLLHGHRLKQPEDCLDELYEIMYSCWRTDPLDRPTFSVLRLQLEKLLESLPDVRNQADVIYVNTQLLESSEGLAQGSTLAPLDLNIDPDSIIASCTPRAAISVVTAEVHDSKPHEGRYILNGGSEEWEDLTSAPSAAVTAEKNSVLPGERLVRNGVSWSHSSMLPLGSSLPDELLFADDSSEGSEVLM
# Assay: MerTk degradation in Jurkat cells (Western blot)
# Format: cell-based
# Settings: Jurkat, 4 h, 0.001-1 μM, 4 hour-incubation at 37° C., read-out: Jurkat Max % MerTK Degradation
# Procedure, shortened: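 Jurkat cells treated 4 h at 37 °C with compound at 0.001-1 μM final. RIPA lysates quantified by BCA, then MerTK probed by Western blot against actin loading control with IR-dye secondaries and Odyssey imaging.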
row,Compound,Dmax [%]
1,"CCCCNc1ncc2c(-c3ccc(CN4CCN(CCCOCCCc5ccc6c(c5)n(C)c(=O)n6[C@H]5CCC(=O)NC5=O)CC4)cc3)cn([C@H]3CC[C@H](O)CC3)c2n1 [I-69, 3-[5-(3-[3-[4-([4-[2-(butylamino)-7-[trans-4-hydroxycyclohexy1]-7H-pyrrolo[2,3-d]pyrimidin-5-yl]phenyl]methyl)piperazin-1-yl]propoxy]propyl)-3-methyl-2-oxo-2,3-dihydro-1H-1,3-benzodiazol-1-yl]piperidine-2,6-dione; bis(formic acid)]",> 50
2,"C[C@H](CC(F)(F)F)Nc1ncc2c(-c3ccc(CN4CCN(CCCOCCCc5ccc6c(c5)n(C)c(=O)n6C5CCC(=O)N(C)C5=O)CC4)cc3)cn([C@H]3CC[C@H](O)CC3)c2n1 (stereo partly drawn) [I-224, 1-methyl-3-[3-methyl-2-oxo-5-[3-(3-[4-[(4-[7-[trans-4-hydroxycyclohexy1]-2-[[(2R)-4,4,4-trifluorobutan-2-yl]amino]pyrrolo[2,3-d]pyrimidin-5-yl]phenyl)methyl]piperazin-1-yl]propoxy)propyl]-1,3-benzodiazol-1-yl]piperidine-2,6-dione]",< 20
3,CCC[C@H](C)Nc1ncc2c(n1)n([C@H]1CC[C@H](O)CC1)cc2[C@H]1CC[C@@H](CN2CCN(CCCOC3CCN(Cc4ccc5c(c4)n(C)c(=O)n5C4CCC(=O)NC4=O)CC3)CC2)CC1 (stereo partly drawn) [I-207],> 50
4,"COC[C@H](C)Nc1ncc2c(-c3ccc(CN4CCN(CCOCCOCCOCCOCCNc5cccc6c5C(=O)N(C5CCC(=O)NC5=O)C6=O)CC4)cc3)cn([C@H]3CC[C@H](O)CC3)c2n1 (stereo partly drawn) [I-11, Trans-2-(2,6-dioxopiperidin-3-yl)-4-[15-(4-[[4-(2-[[(2S)-1-methoxypropan-2-yl]amino]-7-[4-hydroxycyclohexyl]-7H-pyrrolo[2,3-d]pyrimidin-5-yl)phenyl]methyl]piperazin-1-yl)-4,7,10,13-tetraoxa-1-azapentadecan-1-yl]-2,3-dihydro-1H-isoindole-1,3-dione]",> 50
5,"Cn1c(=O)n([C@H]2CCC(=O)NC2=O)c2ccc(CCCN3CCC(N4CCN(Cc5ccc(-c6cn([C@H]7CC[C@H](O)CC7)c7nc(NCCC(F)(F)F)ncc67)cc5)CC4)CC3)cc21 [I-117, 3-[3-methyl-2-oxo-5-[3-(4-[4-[(4-[7-[trans-4-hydroxycyclohexy1]-2-[(3,3,3-trifluoropropyl)amino]-7H-pyrrolo[2,3-d]pyrimidin-5-yl]phenyl)methyl]piperazin-1-yl]piperidin-1-y1)propyl]-2,3-dihydro-1H-1,3-benzodiazol-1-yl]piperidine-2,6-dione]",> 50
6,"Cn1c(=O)n(C2CCC(=O)NC2=O)c2ccc(CCCCN3CCCC(N4CCN(Cc5ccc(-c6cn([C@H]7CC[C@H](O)CC7)c7nc(NCCC(F)(F)F)ncc67)cc5)CC4)C3)cc21 (stereo partly drawn) [I-121, 3-[3-methyl-2-oxo-5-[4-(3-[4-[(4-[7-[trans-4-hydroxycyclohexyl]-2-[(3,3,3-trifluoropropyl)amino]-7H-pyrrolo[2,3-d]pyrimidin-5-yl]phenyl)methyl]piperazin-1-yl]piperidin-1-yl)butyl]-2,3-dihydro-1H-1,3-benzodiazol-1-yl]piperidine-2,6-dione]",> 50
7,"CCCCNc1ncc2c(-c3ccc(C(C)N4CCN(CCOCCOCCOCCOCCCc5ccc6c(c5)n(C)c(=O)n6C5CCC(=O)NC5=O)CC4)cc3)cn([C@H]3CC[C@H](O)CC3)c2n1 (stereo partly drawn) [I-59, 3-(5-[1-[4-(1-[4-[2-(butylamino)-7-[trans-4-hydroxycyclohexy1]-7H-pyrrolo[2,3-d]pyrimidin-5-yl]phenyl]ethyl)piperazin-1-yl]-3,6,9,12-tetraoxapentadecan-15-y1]-3-methyl-2-oxo-2,3-dihydro-1H-1,3-benzodiazol-1-yl)piperidine-2,6-dione]",> 50
8,"CN(C)c1cccc2c(S(=O)(=O)Nc3cccc(-c4cnc(NCCOCCN5CCN(Cc6ccc(-c7cn([C@H]8CC[C@H](O)CC8)c8nc(NCCC(F)(F)F)ncc78)cc6)CC5)nc4N4CCC(c5ccccc5)C4C(=O)O)c3)cccc12 (stereo partly drawn) [I-167, 1-(5-[3-[5-(Dimethylamino)naphthalene-1-sulfonamido]phenyl]-2-[[2-(2-[4-[(4-[7-[trans-4-hydroxycyclohexyl]-2-[(3,3,3-trifluoropropyl)amino]pyrrolo[2,3-d]pyrimidin-5-yl]phenyl)methyl]piperazin-1-yl]ethoxy)ethyl]amino]pyrimidin-4-yl)-3-phenylpyrrolidine-2-carboxylic acid]",< 20
9,CCC[C@@H](C)Nc1ncc2c(-c3ccc(CN4CCN(CCCO[C@H]5CCN(Cc6ccc7c(c6)n(C)c(=O)n7C6CCC(=O)NC6=O)C5)CC4)cc3)cn([C@H]3CC[C@H](O)CC3)c2n1 (stereo partly drawn) [I-176],> 50
10,"Cn1c(=O)n([C@H]2CCC(=O)NC2=O)c2ccc(CCCOCCN3CC(N4CCN(Cc5ccc(-c6cn([C@H]7CC[C@H](O)CC7)c7nc(NCCC(F)(F)F)ncc67)cc5)CC4)C3)cc21 [I-91, 3-(3-methyl-2-oxo-5-[3-[2-(3-[4-[(4-[7-[trans-4-hydroxycyclohexy1]-2-[(3,3,3-trifluoropropyl)amino]-7H-pyrrolo[2,3-d]pyrimidin-5-y1]phenyl)methyl]piperazin-1-yl]azetidin-1-yl)ethoxy]propyl]-2,3-dihydro-1H-1,3-benzodiazol-1-yl)piperidine-2,6-dione; formic acid]",> 50
11,"Cn1c(=O)n([C@H]2CCC(=O)NC2=O)c2ccc(CCCOCCOCCOCCN3CCN(Cc4ccc(-c5nn([C@H]6CC[C@H](O)CC6)c6nc(NCCC(F)(F)F)ncc56)cc4)CC3)cc21 [I-63, 3-[3-methyl-2-oxo-5-(3-[2-[2-(2-[4-[(4-[1-[trans-4-hydroxycyclohexyl]-6-[(3,3,3-trifluoropropyl)amino]-1H-pyrazolo[3,4-d]pyrimidin-3-yl]phenyl)methyl]piperazin-1-yl]ethoxy)ethoxy]ethoxy]propyl)-2,3-dihydro-1H-1,3-benzodiazol-1-yl]piperidine-2,6-dione; formic acid]",> 50
12,"Cn1c(=O)n([C@H]2CCC(=O)NC2=O)c2ccc(CCOCCN3CC(N4CCN(Cc5ccc(-c6cn([C@H]7CC[C@H](O)CC7)c7nc(NCCC(F)(F)F)ncc67)cc5)CC4)C3)cc21 [I-129, 3-(3-methyl-2-oxo-5-[2-[2-(3-[4-[(4-[7-[trans-4-hydroxycyclohexy1]-2-[(3,3,3-trifluoropropyl)amino]-7H-pyrrolo[2,3-d]pyrimidin-5-y1]phenyl)methyl]piperazin-1-yl]azetidin-1-yl)ethoxy]ethyl]-2,3-dihydro-1H-1,3-benzodiazol-1-y1)piperidine-2,6-dione; formic acid]",> 50
13,"C[C@@H](CC(F)(F)F)Nc1ncc2c(-c3ccc(CN4CCN(CCCOCCCc5ccc6c(c5)n(C)c(=O)n6C5CCC(=O)N(C)C5=O)CC4)cc3)cn([C@H]3CC[C@H](O)CC3)c2n1 (stereo partly drawn) [I-225, 1-methyl-3-[3-methyl-2-oxo-5-[3-(3-[4-[(4-[7-[trans-4-hydroxycyclohexy1]-2-[[(2S)-4,4,4-trifluorobutan-2-yl]amino]pyrrolo[2,3-d]pyrimidin-5-yl]phenyl)methyl]piperazin-1-yl]propoxy)propyl]-1,3-benzodiazol-1-yl]piperidine-2,6-dione]",< 20
14,"Cn1c(=O)n([C@H]2CCC(=O)NC2=O)c2cccc(CCCOCCCOCCCNCc3ccc(-c4cn([C@H]5CC[C@H](O)CC5)c5nc(NCCC(F)(F)F)ncc45)cc3)c21 [I-52, 3-(3-methyl-2-oxo-4-[3-[3-(3-[[(4-[7-[trans-4-hydroxycyclohexyl]-2-[(3,3,3-trifluoropropyl)amino]-7H-pyrrolo[2,3-d]pyrimidin-5-yl]phenyl)methyl]amino]propoxy)propoxy]propyl]-2,3-dihydro-1H-1,3-benzodiazol-1-y1)piperidine-2,6-dione hydrochloride]",> 50
15,"Cn1c(=O)n([C@H]2CCC(=O)NC2=O)c2ccc(CCO[C@H]3C[C@H](N4CCN(Cc5ccc(-c6cn([C@H]7CC[C@H](O)CC7)c7nc(NCCC(F)(F)F)ncc67)cc5)CC4)C3)cc21 [I-170, 3-(3-methyl-2-oxo-5-[2-[trans-3-[4-[(4-[7-[trans-4-hydroxycyclohexy1]-2-[(3,3,3-trifluoropropyl)amino]pyrrolo[2,3-d]pyrimidin-5-yl]phenyl)methyl]piperazin-1-yl]cyclobutoxy]ethyl]-1,3-benzodiazol-1-y1)piperidine-2,6-dione; formic acid]",> 50
